Data as given in ChEMBL document CHEMBL4507261, “Data for DCP probe A-192621” (2021).

Key:
[1] = biological target: BMP-2-inducible protein kinase (Homo sapiens) (UniProt Q9NSY1); details: Compound concentration 1000.0 nM
[2] = biological target: Ribosomal protein S6 kinase alpha-6 (Homo sapiens) (UniProt Q9UK32); details: Compound concentration 1000.0 nM
[3] = biological target: Platelet-derived growth factor receptor beta (Homo sapiens) (UniProt P09619); details: Compound concentration 1000.0 nM
[4] = biological target: MAP kinase-activated protein kinase 2 (Homo sapiens) (UniProt P49137); details: Compound concentration 1000.0 nM
[5] = biological target: Peripheral plasma membrane protein CASK (Homo sapiens) (UniProt O14936); details: Compound concentration 1000.0 nM
[6] = biological target: Dual specificity mitogen-activated protein kinase kinase 6 (Homo sapiens) (UniProt P52564); details: Compound concentration 1000.0 nM
[7] = test system: Receptor-type tyrosine-protein kinase FLT3 (Homo sapiens), P36888 [N841I]; details: Compound concentration 1000.0 nM
[8] = biological target: T1, Muscarinic acetylcholine receptor M5 (Homo sapiens) (UniProt P08912); assay: M5 (h) Eurofins-Cerep binding assay; design: ligand concentration 0.3 nM; details: filed as antagonist, Compound concentration 10.0 uM
T1 sequence (whole entry): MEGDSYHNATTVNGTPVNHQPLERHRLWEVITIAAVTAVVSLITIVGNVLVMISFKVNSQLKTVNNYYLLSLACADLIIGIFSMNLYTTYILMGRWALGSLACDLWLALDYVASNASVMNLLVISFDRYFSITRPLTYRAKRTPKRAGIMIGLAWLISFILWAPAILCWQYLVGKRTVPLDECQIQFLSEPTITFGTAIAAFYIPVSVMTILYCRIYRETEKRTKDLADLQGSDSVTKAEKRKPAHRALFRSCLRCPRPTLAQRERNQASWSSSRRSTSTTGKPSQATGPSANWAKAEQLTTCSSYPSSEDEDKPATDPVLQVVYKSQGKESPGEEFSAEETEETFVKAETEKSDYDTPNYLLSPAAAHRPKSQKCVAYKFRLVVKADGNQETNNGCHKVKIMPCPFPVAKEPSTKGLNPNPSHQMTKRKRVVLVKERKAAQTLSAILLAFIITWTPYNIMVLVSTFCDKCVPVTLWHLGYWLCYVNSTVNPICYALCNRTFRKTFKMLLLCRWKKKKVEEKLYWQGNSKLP

[9] = biological target: LIM domain kinase 1 (Homo sapiens) (UniProt P53667); details: Compound concentration 1000.0 nM
[10] = biological target: Serine/threonine-protein kinase SIK1 (Homo sapiens) (UniProt P57059); details: Compound concentration 1000.0 nM
[11] = test system: Phosphatidylinositol 4,5-bisphosphate 3-kinase catalytic subunit alpha isoform (Homo sapiens), P42336 [C420R]; details: Compound concentration 1000.0 nM
[12] = biological target: Serine/threonine-protein kinase LATS1 (Homo sapiens) (UniProt O95835); details: Compound concentration 1000.0 nM
[13] = biological target: AP2-associated protein kinase 1 (Homo sapiens) (UniProt Q2M2I8); details: Compound concentration 1000.0 nM
[14] = biological target: Serine/threonine-protein kinase WNK2 (Homo sapiens) (UniProt Q9Y3S1); details: Compound concentration 1000.0 nM
[15] = biological target: Serine/threonine-protein kinase ULK1 (Homo sapiens) (UniProt O75385); details: Compound concentration 1000.0 nM
[16] = biological target: Phosphatidylinositol 5-phosphate 4-kinase type-2 beta (Homo sapiens) (UniProt P78356); details: Compound concentration 1000.0 nM
[17] = biological target: Ribosomal protein S6 kinase alpha-6 (Homo sapiens) (UniProt Q9UK32); details: Compound concentration 1000.0 nM; remark: listed apart in the source
[18] = biological target: Serine/threonine-protein kinase/endoribonuclease IRE1 (Homo sapiens) (UniProt O75460); details: Compound concentration 1000.0 nM
[19] = biological target: Tyrosine-protein kinase JAK2 (Homo sapiens) (UniProt O60674); details: Compound concentration 1000.0 nM
[20] = biological target: Serine/threonine-protein kinase Nek1 (Homo sapiens) (UniProt Q96PY6); details: Compound concentration 1000.0 nM
[21] = biological target: Tyrosine-protein kinase ITK/TSK (Homo sapiens) (UniProt Q08881); details: Compound concentration 1000.0 nM
[22] = biological target: TGF-beta receptor type-2 (Homo sapiens) (UniProt P37173); details: Compound concentration 1000.0 nM
[23] = biological target: Ephrin type-B receptor 2 (Homo sapiens) (UniProt P29323); details: Compound concentration 1000.0 nM
[24] = biological target: Serine/threonine-protein kinase PLK4 (Homo sapiens) (UniProt O00444); details: Compound concentration 1000.0 nM
[25] = biological target: 5'-AMP-activated protein kinase catalytic subunit alpha-1 (Homo sapiens) (UniProt Q13131); details: Compound concentration 1000.0 nM
[26] = biological target: Serine/threonine-protein kinase NLK (Homo sapiens) (UniProt Q9UBE8); details: Compound concentration 1000.0 nM
[27] = biological target: Mitogen-activated protein kinase kinase kinase 19 (Homo sapiens) (UniProt Q56UN5); details: Compound concentration 1000.0 nM
[28] = biological target: Adenosine receptor A2b (Homo sapiens) (UniProt P29275); assay: A2B (h) Eurofins-Cerep binding assay; design: ligand concentration 5 nM; details: filed as antagonist, Compound concentration 10.0 uM
[29] = biological target: Receptor-interacting serine/threonine-protein kinase 4 (Homo sapiens) (UniProt P57078); details: Compound concentration 1000.0 nM
[30] = biological target: Serine/threonine-protein kinase Nek7 (Homo sapiens) (UniProt Q8TDX7); details: Compound concentration 1000.0 nM
[31] = biological target: Protein kinase C delta type (Homo sapiens) (UniProt Q05655); details: Compound concentration 1000.0 nM
[32] = biological target: Phosphatidylinositol 3-kinase catalytic subunit type 3 (Homo sapiens) (UniProt Q8NEB9); details: Compound concentration 1000.0 nM
[33] = test system: Mast/stem cell growth factor receptor Kit (Homo sapiens), P10721 [V559D,V654A]; details: Compound concentration 1000.0 nM
[34] = biological target: B2 bradykinin receptor (Homo sapiens) (UniProt P30411); assay: B2 (h) Eurofins-Cerep binding assay; design: ligand concentration 0.3 nM; details: filed as agonist, Compound concentration 10.0 uM
[35] = biological target: Membrane-associated tyrosine- and threonine-specific cdc2-inhibitory kinase (Homo sapiens) (UniProt Q99640); details: Compound concentration 1000.0 nM
[36] = biological target: Mitogen-activated protein kinase 13 (Homo sapiens) (UniProt O15264); details: Compound concentration 1000.0 nM
[37] = biological target: Mitogen-activated protein kinase kinase kinase 12 (Homo sapiens) (UniProt Q12852); details: Compound concentration 1000.0 nM

Sequence of Ribosomal protein S6 kinase alpha-6 (Homo sapiens) (Q9UK32 whole entry): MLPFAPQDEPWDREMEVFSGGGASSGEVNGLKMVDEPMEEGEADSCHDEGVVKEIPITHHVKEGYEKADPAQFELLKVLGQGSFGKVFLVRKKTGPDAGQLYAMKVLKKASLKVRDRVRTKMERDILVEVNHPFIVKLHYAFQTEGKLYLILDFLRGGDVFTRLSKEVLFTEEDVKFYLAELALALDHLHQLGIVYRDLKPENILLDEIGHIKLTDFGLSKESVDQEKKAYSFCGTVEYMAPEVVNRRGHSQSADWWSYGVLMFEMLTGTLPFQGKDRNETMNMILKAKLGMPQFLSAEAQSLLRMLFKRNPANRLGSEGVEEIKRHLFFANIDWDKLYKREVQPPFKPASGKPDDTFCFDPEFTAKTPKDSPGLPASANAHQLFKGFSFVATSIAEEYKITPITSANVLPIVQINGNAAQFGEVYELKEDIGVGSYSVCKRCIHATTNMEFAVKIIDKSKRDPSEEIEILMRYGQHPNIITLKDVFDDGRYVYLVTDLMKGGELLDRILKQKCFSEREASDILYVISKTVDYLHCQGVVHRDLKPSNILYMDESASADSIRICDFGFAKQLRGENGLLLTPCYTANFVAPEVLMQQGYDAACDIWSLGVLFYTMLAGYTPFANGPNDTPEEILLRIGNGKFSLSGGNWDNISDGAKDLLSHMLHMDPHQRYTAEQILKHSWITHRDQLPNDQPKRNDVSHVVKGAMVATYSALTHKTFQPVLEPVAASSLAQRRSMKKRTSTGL
Sequence of Membrane-associated tyrosine- and threonine-specific cdc2-inhibitory kinase (Homo sapiens) (Q99640 whole entry): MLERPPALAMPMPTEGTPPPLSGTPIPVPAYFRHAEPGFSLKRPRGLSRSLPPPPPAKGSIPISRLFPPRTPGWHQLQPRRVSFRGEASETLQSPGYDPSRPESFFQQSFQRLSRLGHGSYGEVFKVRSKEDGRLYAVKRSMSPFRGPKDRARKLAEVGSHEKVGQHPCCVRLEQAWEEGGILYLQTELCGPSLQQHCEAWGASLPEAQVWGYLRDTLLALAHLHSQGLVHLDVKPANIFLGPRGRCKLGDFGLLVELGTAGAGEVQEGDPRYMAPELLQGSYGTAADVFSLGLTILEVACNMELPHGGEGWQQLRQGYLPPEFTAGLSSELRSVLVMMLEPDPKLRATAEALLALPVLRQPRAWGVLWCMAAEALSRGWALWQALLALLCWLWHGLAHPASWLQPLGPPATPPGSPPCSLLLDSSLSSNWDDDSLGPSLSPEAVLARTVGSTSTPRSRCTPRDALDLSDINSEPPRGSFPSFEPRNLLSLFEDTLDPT
Sequence of Dual specificity mitogen-activated protein kinase kinase 6 (Homo sapiens) (P52564 whole entry): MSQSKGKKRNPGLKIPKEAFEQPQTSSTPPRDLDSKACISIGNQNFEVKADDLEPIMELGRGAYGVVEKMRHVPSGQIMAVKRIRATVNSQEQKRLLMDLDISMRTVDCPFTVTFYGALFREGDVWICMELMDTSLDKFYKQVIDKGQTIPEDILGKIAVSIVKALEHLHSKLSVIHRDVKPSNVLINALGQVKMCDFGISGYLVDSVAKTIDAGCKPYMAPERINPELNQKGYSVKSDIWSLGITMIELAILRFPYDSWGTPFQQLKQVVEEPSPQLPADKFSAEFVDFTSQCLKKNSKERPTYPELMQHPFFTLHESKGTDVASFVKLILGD
Sequence of Phosphatidylinositol 3-kinase catalytic subunit type 3 (Homo sapiens) (Q8NEB9 whole entry): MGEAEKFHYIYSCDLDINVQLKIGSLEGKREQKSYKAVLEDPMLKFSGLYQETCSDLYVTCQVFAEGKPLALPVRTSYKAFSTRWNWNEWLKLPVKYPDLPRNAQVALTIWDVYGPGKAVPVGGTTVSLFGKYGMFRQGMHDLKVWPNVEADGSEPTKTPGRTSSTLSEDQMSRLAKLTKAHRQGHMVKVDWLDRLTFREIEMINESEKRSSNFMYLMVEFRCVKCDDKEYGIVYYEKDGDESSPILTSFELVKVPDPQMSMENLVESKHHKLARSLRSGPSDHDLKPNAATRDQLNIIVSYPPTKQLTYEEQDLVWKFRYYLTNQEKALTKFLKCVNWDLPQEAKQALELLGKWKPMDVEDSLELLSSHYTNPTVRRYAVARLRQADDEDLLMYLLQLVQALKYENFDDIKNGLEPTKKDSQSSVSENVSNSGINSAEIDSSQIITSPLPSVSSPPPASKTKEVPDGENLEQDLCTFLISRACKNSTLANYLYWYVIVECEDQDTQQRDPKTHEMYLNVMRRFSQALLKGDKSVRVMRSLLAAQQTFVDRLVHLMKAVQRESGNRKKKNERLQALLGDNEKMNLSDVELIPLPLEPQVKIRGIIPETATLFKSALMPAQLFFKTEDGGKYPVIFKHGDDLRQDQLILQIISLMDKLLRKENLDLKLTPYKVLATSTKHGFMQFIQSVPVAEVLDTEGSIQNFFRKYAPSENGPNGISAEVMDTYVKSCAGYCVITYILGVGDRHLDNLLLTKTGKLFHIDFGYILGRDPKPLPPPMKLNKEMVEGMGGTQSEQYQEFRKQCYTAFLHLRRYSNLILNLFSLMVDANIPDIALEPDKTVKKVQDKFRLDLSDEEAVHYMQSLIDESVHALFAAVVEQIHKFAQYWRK
Sequence of Serine/threonine-protein kinase Nek1 (Homo sapiens) (Q96PY6 whole entry): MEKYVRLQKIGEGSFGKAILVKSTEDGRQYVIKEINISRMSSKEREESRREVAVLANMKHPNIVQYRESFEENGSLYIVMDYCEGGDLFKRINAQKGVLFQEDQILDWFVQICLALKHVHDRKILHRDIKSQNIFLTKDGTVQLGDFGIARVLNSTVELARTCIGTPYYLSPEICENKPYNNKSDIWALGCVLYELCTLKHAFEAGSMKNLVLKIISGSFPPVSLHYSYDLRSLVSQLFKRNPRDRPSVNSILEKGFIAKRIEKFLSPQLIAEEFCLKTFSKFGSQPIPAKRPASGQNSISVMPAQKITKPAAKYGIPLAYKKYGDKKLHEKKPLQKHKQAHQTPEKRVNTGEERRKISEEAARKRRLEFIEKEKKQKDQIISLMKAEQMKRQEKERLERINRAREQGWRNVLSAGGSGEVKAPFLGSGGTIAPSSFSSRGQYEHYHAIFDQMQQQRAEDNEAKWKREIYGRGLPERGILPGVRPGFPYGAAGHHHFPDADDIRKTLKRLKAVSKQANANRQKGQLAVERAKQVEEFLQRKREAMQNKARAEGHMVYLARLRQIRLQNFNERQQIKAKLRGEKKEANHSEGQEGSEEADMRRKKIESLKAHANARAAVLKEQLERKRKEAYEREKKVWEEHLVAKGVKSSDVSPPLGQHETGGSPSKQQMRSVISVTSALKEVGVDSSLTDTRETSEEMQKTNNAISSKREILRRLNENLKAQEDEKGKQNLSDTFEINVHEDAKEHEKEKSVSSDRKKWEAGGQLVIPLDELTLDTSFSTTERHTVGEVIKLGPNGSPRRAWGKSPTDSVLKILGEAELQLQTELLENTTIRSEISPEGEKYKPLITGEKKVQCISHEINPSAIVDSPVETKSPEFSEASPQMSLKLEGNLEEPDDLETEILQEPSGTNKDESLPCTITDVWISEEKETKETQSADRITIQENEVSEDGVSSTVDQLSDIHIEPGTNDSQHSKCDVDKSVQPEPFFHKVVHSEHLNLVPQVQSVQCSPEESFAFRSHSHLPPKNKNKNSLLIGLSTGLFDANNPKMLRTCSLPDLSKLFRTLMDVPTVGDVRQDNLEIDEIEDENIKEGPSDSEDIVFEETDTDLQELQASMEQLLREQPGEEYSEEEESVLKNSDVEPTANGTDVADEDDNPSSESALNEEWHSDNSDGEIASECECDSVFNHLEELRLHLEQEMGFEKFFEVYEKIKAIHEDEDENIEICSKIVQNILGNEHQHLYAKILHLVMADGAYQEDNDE
Sequence of Phosphatidylinositol 4,5-bisphosphate 3-kinase catalytic subunit alpha isoform (Homo sapiens), P42336 [C420R] (P42336 whole entry C420R, canonical isoform): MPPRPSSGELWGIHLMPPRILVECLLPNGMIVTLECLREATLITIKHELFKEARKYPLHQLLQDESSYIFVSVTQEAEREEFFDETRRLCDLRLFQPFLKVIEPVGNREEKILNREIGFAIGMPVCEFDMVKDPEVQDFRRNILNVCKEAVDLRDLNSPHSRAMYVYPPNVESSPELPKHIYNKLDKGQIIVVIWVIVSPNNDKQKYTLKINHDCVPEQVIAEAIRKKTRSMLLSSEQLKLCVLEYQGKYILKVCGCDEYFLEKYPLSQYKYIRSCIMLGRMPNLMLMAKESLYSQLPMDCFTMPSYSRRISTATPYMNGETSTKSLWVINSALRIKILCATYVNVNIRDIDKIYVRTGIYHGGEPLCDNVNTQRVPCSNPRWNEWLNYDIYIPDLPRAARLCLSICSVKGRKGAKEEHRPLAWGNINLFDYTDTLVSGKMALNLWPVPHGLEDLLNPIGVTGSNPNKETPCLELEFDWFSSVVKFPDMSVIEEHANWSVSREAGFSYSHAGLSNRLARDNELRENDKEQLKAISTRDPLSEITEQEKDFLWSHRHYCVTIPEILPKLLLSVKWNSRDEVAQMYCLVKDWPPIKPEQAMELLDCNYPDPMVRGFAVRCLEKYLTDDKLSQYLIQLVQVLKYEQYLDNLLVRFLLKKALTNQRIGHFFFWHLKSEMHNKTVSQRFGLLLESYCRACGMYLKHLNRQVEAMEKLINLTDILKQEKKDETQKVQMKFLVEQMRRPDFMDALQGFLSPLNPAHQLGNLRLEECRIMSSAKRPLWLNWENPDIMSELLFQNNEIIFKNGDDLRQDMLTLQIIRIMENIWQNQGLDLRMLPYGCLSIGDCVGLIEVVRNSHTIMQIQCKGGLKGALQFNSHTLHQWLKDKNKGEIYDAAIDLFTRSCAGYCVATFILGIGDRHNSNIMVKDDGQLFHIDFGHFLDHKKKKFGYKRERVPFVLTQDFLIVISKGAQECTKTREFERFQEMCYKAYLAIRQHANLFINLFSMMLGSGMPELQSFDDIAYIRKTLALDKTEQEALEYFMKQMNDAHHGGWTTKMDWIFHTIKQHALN

SMILES	residual activity [1] [%]	residual activity [2] [%]	residual activity [3] [%]	residual activity [4] [%]	residual activity [5] [%]	residual activity [6] [%]	residual activity [7] [%]	% Inhibition of Control Specific Binding (Mean n=2) [8] [%]	residual activity [9] [%]	residual activity [10] [%]	residual activity [11] [%]	residual activity [12] [%]	residual activity [13] [%]	residual activity [14] [%]	residual activity [15] [%]	residual activity [16] [%]	residual activity [17] [%]	residual activity [18] [%]	residual activity [19] [%]	residual activity [20] [%]	also measured
CCCOc1ccc([C@@H]2[C@@H](C(=O)O)[C@H](c3ccc4c(c3)OCO4)CN2CC(=O)Nc2c(CC)cccc2CC)cc1 [A-1806262]	92	76	100	100	89	100	88	0.9	90	100	100	57	90	88	77	80	91	90	79	100	residual activity [21]: 100%; residual activity [22]: 96%; residual activity [23]: 100%; residual activity [24]: 82%; residual activity [25]: 96%; residual activity [26]: 100%; residual activity [27]: 93%; % Inhibition of Control Specific Binding (Mean n=2) [28]: -8.6%; residual activity [29]: 100%; residual activity [30]: 100%; residual activity [31]: 100%; residual activity [32]: 88%; residual activity [33]: 94%; % Inhibition of Control Specific Binding (Mean n=2) [34]: -12.3%; residual activity [35]: 100%; residual activity [36]: 100%; residual activity [37]: 100%
CCCOc1ccc([C@H]2[C@H](C(=O)O)[C@@H](c3ccc4c(c3)OCO4)CN2CC(=O)Nc2c(CC)cccc2CC)cc1 [A-192621]	87	77	100	100	77	100	93	10	100	100	95	77	95	58	68	97	78	86	53	87	residual activity [21]: 96%; residual activity [22]: 95%; residual activity [23]: 100%; residual activity [24]: 78%; residual activity [25]: 100%; residual activity [26]: 100%; residual activity [27]: 77%; % Inhibition of Control Specific Binding (Mean n=2) [28]: -6.1%; residual activity [29]: 69%; residual activity [30]: 96%; residual activity [31]: 100%; residual activity [32]: 78%; residual activity [33]: 98%; % Inhibition of Control Specific Binding (Mean n=2) [34]: -8.6%; residual activity [35]: 74%; residual activity [36]: 92%; residual activity [37]: 52%
